The text below walks through data of US10918601B2, “Spray-dried pharmaceutical compositions comprising active agent nanoparticles” (Besins Healthcare Luxembourg SARL, priority 2013, dated 2021).

A short description of the series: Particle size of mometasone furoate before milling, after roller milling and after spray drying. Format: physicochemical. Conditions: before roller milling. As to the method: Spray Drying Conditions: Inlet temperature=110° C.; Outlet temperature=54° C.; Aspirator=100%; Pump rate=20%; Q flow=50%; Nozzle cap=1.5 mm.
Roller Milling Conditions: Mometasone Furoate—initial median size—19.7 μm. Samples are milled in 250 mL jars for 3 hours with 0.5 mm YTZ media. Particle size diameter (PSD), after 3 hours milling, is measured in water. After milling, the suspension is extracted (needle 22G) from jars and mixed according the table and procedure shown. Procedure for Preparation of the Spray Drying Suspensions: The amounts of HPMC, MCC and H2O used is based on the extracted quantity of the suspension (Table II). HPMC is added as a solution prepared in H2O. HPMC solution is added to the extracted suspension and mixed for 15 minutes. MCC (Grade PH-F20JP, 20 μm) is added and mixed for 15 minutes. Particle size diameter (PSD) is measured after spray drying by dispersing the spray-dried powder in a liquid such as isopropyl palmitate or silicone oil, which are non-solvents for the components and will not alter particle size or cause disintegration of the composite particle. Materials: Mometasone Furoate (Hovione, East Windsor, N.J.); Citric acid, anhydrous (Fisher, Hampton, N.H.); Benzalkonium chloride (Fluka, St. Louis, Mo.); Microcrystalline cellulose (AsahKasei, Glenview, Ill.); Hydroxypropylmethyl cellulose (Colorcon, Harleysville, Pa.). […]

On to `C[C@@H]1C[C@H]2[C@@H]3CCC4=CC(=O)C=C[C@]4(C)[C@@]3(Cl)[C@@H](O)C[C@]2(C)[C@@]1(OC(=O)c1ccco1)C(=O)CCl` [Mometasone Furoate, (11β,16α)-9,21-dichloro-11-hydroxy-16-methyl-3,20-dioxopregna-1,4-dien-17-yl 2-furoate], for which the initial median size came to 19.7 μm.
